According to article PMC12441774, “Proteolytic stabilization of a spider venom peptide results in an orally active bioinsecticide” (Pest Management Science, 2025):
Bridges are numbered along the chain shown (N, C = ends). Where no end group is shown, it is not given here.

Key:
[1] = tested on: Musca domestica; assay: Insecticidal activity by injection into adult house flies; type: in vivo
Method: Adult house flies (Musca domestica L.) were immobilized with CO2 gas and those with an average weight of 12–18 mg were selected for injection. Purified solutions of Ta1b and variants were diluted in water and injected into the dorsal thorax with a 1‐cc syringe and 30‐gauge needle using a hand microapplicator (Burkard, Rickmansworth, England). Each adult was injected with 0.5 μL of solution with 10 flies per treatment in at least triplicate. Water was used as a negative control. Flies were placed into a container with moist filter paper and scored for mortality 24 h post‐injection. Ten non‐injected flies were placed in a container to assess CO2 mortality. Response curves were fitted with a four‐parameter sigmoidal function (GraphPad Prism, Boston, MA) to determine LD50 values.
(§1) To compare the potency of Ta1b, we also injected the following active ingredients into M. domestica and H. zea: GS‐ω/κ (Spear, Vestaron), spinosad (Monterey Garden Insect Spray, Monterey), thiamethoxam (Optigard® Flex, Syngenta), and chlorantraniliprole (ALTACOR®, FMC).

[2] = tested on: Helicoverpa zea; assay: Insecticidal activity by injection into fourth instar larvae; type: in vivo
Method: Helicoverpa zea (Boddie, 1850) larvae were reared from eggs (Benzon, Carlisle, PA) to fourth instar on general purpose lepidopteran diet (F9772, Frontier Agricultural Sciences, Newark, DE). Pre‐weighed larvae immobilized on ice were injected into their penultimate proleg as described for M. domestica with 1 μL solution and eight larvae per treatment in at least triplicate. After injection, larvae were placed in a well of a 32‐well tray filled with 5 mL lepidopteran diet. The trays were then placed in an incubator at 28° C with 16:8 h light: dark cycle and evaluated 24 h after injection for mortality.
as §1

[3] = tested on: H. zea neonates; assay: Insecticidal activity by foliar spray (lettuce leaf disk feeding); type: in vivo, Helicoverpa zea
Method: Organic romaine lettuce was cut into 30‐mm diameter disks and sterilized with a 140‐ppm bleach solution followed by a triple rinse in water. The lettuce disks were then sprayed on either side using a Potter Tower Sprayer (Burkard, Rickmansworth, England) with insecticidal solutions, allowing them to dry between sprays. Once fully sprayed and dried, disks were placed into an arena, which was a 32‐well rearing tray containing 5 mL of 1% w/v agar. One leaf disk was placed in each well and a single neonate H. zea was applied to each of the 12 leaf discs per treatment with four experimental replicates per treatment. The trays were then placed in a 28° C incubator with a 16:8 h light: dark cycle. Mortality was evaluated 4 days after application.

[4] = Protease stability, commercial trypsin digestion; type: in vitro ADME, bovine; settings: bovine trypsin 1 mg mL^−1 in 50 mM Tris–HCl pH 8.8, 100 mM NaCl; 5 μL added to 200 μL of 10.7 mg mL^−1 peptide; room temperature; HPLC; read-out: Degradation half life, Trypsin
Method: (§2) For commercial enzyme digestion studies, bovine trypsin (Sigma‐Aldrich, St. Louis, MO) was prepared at a concentration of 1 mg mL^−1 in 50 mM Tris–HCl pH 8.8, 100 mM NaCl. Bovine chymotrypsin (Sigma‐Aldrich) was prepared at a concentration of 1 mg ml^−1 in 50 mM MES pH 6.0, 100 mM NaCl. For each digestion condition, 5 μL of trypsin or chymotrypsin solution were added to 200 μL of 10.7 mg mL^−1 peptide and incubated at room temperature. Samples were taken at defined timepoints, sterile filtered, and analyzed immediately by HPLC.

[5] = biological target: T1, bovine trypsin (Bos taurus, UniProt P00760); assay: Protease stability, commercial trypsin digestion; type: in vitro ADME; settings: pH 8.8, room temperature, HPLC chromatogram
T1 construct: purchased Sigma-Aldrich
T1 sequence (P00760 24-246): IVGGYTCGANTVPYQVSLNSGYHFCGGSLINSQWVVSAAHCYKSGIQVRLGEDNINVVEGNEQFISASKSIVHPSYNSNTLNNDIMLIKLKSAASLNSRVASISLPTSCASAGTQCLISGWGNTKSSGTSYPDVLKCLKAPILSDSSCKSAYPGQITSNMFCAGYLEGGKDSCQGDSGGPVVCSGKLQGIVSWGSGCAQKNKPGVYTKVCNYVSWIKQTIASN
Method: as §2

[6] = Gut enzyme digestion, M. sexta gut extract; type: in vitro ADME, Manduca sexta; settings: M. sexta fifth instar gut extract diluted 10× in 30 mM Tris–HCl pH 8.8, 0.5–1 mg mL^−1 peptide, HPLC, single exponential decay fit
Method: (§3) Larvae of H. zea, Spodoptera frugiperda Smith and Abbot, 1797, and Trichoplusia ni Hubner, 1802 were purchased from Benzon Research and reared to fifth instar on general purpose lepidopteran diet. Manduca sexta L. were purchased from Carolina Biological Supply (Burlington, NC) and reared to fifth instar on the supplied diet. Larvae were anesthetized on ice for 30 min, pinned on a dissection plate, and opened laterally with microdissection scissors. The foregut, midgut and hindgut were excised and washed using sterile water to remove any excess hemolymph and then transferred into a chilled 2‐mL microcentrifuge tube. The extracts were spun in a microcentrifuge at 10000 g to pellet the solids. The liquid fractions were carefully removed, sterile filtered, and stored at −80°C for future use.
(§4) For gut enzyme digestion studies, gut extract was diluted 10× with the dilution buffer (30 mM Tris–HCl, pH 8.8) and 0.5–1 mg mL^−1 of Ta1b. Samples were taken from the digestion mixture at defined timepoints and mixed with a 1:6 ratio of stop buffer (Tris–HCl pH 1–2) to halt further digest of the peptide. Samples were sterile filtered and analyzed by HPLC to determine peptide integrity and concentration.

[7] = Gut enzyme digestion, H. zea gut extract; type: in vitro ADME, Helicoverpa zea; settings: pH 8.8; extract diluted ten-fold, single exponential decay fit, HPLC; read-out: Degradation half-life in H. zea gut extract
Method: as §3, §4

[8] = Gut enzyme digestion, S. frugiperda gut extract; type: in vitro ADME, Spodoptera frugiperda; settings: pH 8.8; extract diluted ten-fold, single exponential decay fit, HPLC; read-out: Degradation half-life in S. frugiperda gut extract
Method: as §3, §4

[9] = Gut enzyme digestion, T. ni gut extract; type: in vitro ADME, Trichoplusia ni; settings: pH 8.8; extract diluted ten-fold, single exponential decay fit, HPLC; read-out: Degradation half-life in T. ni gut extract
Method: as §3, §4

[10] = Gut enzyme digestion, stated jointly for three lepidopteran gut extracts; type: in vitro ADME, H. zea, S. frugiperda, T. ni; settings: 10‐fold diluted gut extract, single exponential decay, followed up to 21 h
Method: as §3, §4

[11] = Circular dichroism thermal denaturation; type: physicochemical; settings: CD ellipticity at 220 nm, 0.4–0.6 mg mL^−1 peptide in 10 mM sodium phosphate pH 7.0, 2°C min^−1 up to 95°C, Boltzmann sigmoidal fit, 3–4 replicates
Method: Thermal denaturation profiles were collected on a Jasco‐J1500 CD spectrophotometer in a 0.2‐cm cuvette at a peptide concentration of 0.4–0.6 mg mL^−1 in 10 mM sodium phosphate, pH 7.0. Ellipticity was monitored at 220 nm every 1°C up to 95°C at a rate of 2°C min^−1. Denaturation curves were fitted with a Boltzmann sigmoidal function (GraphPad Prism) to determine the melting point (T m) for a single replicate. 3–4 replicates were run and the calculated T m values of each variant peptide was tested for a statistically significant difference relative to the rTa1b peptide or Ta1b‐QA commercial peptide, as appropriate, using an unpaired, two‐tailed, heteroscedastic student t's test (Microsoft Excel, Redmond, WA).

[12] = tested on: Myzus persicae; assay: Greenhouse trial on green peach aphids on cucumbers; type: in vivo; settings: Admire Pro 0.088 L product ha^−1; four applications
Method: Contact activity of Ta1b‐QA on green peach aphids (Myzus persicae (Sulzer, 1776)) on cucumbers in the greenhouse was performed in cooperation with A.C.D.S Research in North Rose, NY. The study was a randomized complete block design (RCBD), with treatments replicated six times, plots consisting of three pots each containing two to three plants. […] Treatments were applied four times, at 6–8‐day intervals, with a backpack CO2 sprayer in a spray volume of 374 L ha^−1. The number of aphids per plant was counted at regular intervals (0, 4, 11, 17, 23 and 29 d after first application). Cumulative insect‐days (defined as the area under the insect population curve as a measure of pest pressure) were calculated based on those six rating dates, then converted to % control relative to the untreated check using Abbott's formula. One replicate was removed due to a lack of pest pressure in the untreated check. Data were analyzed by one‐way ANOVA followed by a Tukey HSD LSM test with significance set at P < 0.05 (GraphPad Prism).

[13] = injection, Supplementary Figure 4
[14] = injection, Supplementary Table 1

Compound	Insecticidal LD50, injection, M. domestica (95% CI) ([1]; adult house flies 12–18 mg, 0.5 μL into dorsal thorax, mortality 24 h post‐injection, 10 flies per treatment, at least triplicate, four‐parameter sigmoidal fit)	LD50 against house flies [1, 13] [pmol/g]	Housefly LD50 (95%CI) [1, 14]	Insecticidal LD50, injection, H. zea (95% CI) ([2]; fourth instar larvae, 1 μL into penultimate proleg, mortality 24 h after injection, eight larvae per treatment, at least triplicate)	LD50 against H. zea [2, 13] [pmol/g]	H. zea LD50 (95%CI) [2, 14]	Day 4 mortality of H. zea on treated lettuce leaves, peptide alone ([3]; 100 μg cm^−2, neonates, compared to untreated)	Day 4 mortality of H. zea on treated lettuce leaves, peptide in combination with Btk ([3]; 100 μg cm^−2 peptide with sublethal Btk 0.17 μg cm^−2, neonates)	half-life at 10.4 mg mL^-1 [4] [min]	Digestion by bovine trypsin (HPLC) [5]	Degradation half life, Gut extract [6]	half-life ([6]; read-out: Degradation half life, Gut extract) [min]	half-life [7] [min]	half-life [8] [min]	half-life [9] [min]	Degradation half‐lives in gut extracts from H. zea, S. frugiperda, and T. ni [10] [h]	Melting temperature Tm (± SEM) [11] [°C]	Mean % control of cumulative insect‐days relative to the untreated check, reference standard [12] [%]
EPDEICRARMTNKEFTYKSNVCNNCGDQVAACEAECFRNDVYTACHEAQKG (disulfide 6-36, 22-32, 25-45) [Ta1b]	0.27 (0.23–0.32) nmol g^−1	310	0.27 (0.23-0.32) pmol/g	2.4 (1.7–3.4) nmol g^−1	2560	2.4 (1.7-3.4) pmol/g	no activity	no activity	288	resulted in digestion of the peptide	under 2 min	1.4	118	26.4	38.1	0.5 to 2	73.7 ± 0.4	
O=[N+]([O-])NC1=NCCN1Cc1ccc(Cl)nc1 [imidacloprid]																		90.4
